Experiments:
[1] = test system: MDA-1986; assay: Cytotoxicity; assay type: cell-based, human; settings: read-out: IC50: MDA-1986; 72 hrs post-addition
[2] = test system: MDA-MB-468; assay: Cytotoxicity; assay type: cell-based, human; settings: read-out: IC50: MDA-MB-468; 72 hrs post-addition
[3] = test system: MDA-1986 cells; assay: Nitric oxide release in vitro; assay type: cell-based, human
[4] = test system: MDA-MB-231; assay: Cytotoxicity; assay type: cell-based, human; settings: read-out: IC50: MDA-MB-231; 72 hrs post-addition
[5] = test system: MDA-1986 human head and neck squamous cell carcinoma xenografts

Row | Compound | IC50 [1] [µM] | IC50 [2] [µM] | increase in release half-life compared to JS-K [3] [fold] | IC50 [4] [µM] | progressive disease (PD) rate ([5]; 10 mg/kg, Sugar-NO1 s.c., JS-K i.v.) [%] | animals euthanized (tumor size exceeding 1000 mm^3 or necrosis of the injection site on the tail) ([5]; within 7 weeks) [%]
1 | O^2-(2,4-Dinitrophenyl) 1-{[4-(2-hydroxy)ethyl]-3-methylpiperazin-1-yl}diazen-1-ium-1,2-diolate [NO2] | 57 | 27 | – | – | – | –
2 | O=[N+]([O-])c1ccc(ON=[N+]([O-])N2CCN(CCOCCO)CC2)c([N+](=O)[O-])c1 [NO1, O^2-(2,4-Dinitrophenyl) 1-{[4-(2-(2-hydroxyethoxy))ethyl]piperazin-1-yl} diazen-1-ium-1,2-diolate] | 32 | 26 | 1 | 32 | – | –
3 | CCOC(=O)N1CCN(/[N+]([O-])=N/Oc2ccc([N+](=O)[O-])cc2[N+](=O)[O-])CC1 [JS-K, O^2-(2,4-Dinitrophenyl) 1-[(4-ethoxycarbonyl)piperazin-1-yl]diazen-1-ium-1,2-diolate, reference compound] | 16 | 42 | – | – | 100 | 100

Source: publication PMC3572206 (Biomaterials, 2012)
